According to patent US10278909B2, “Composition suitable to preserve the physiological condition of skin and hair and reestablish their regenerative functions” (GIULIANI S.P.A., priority 2014, dated 2019):

system: Human Hair Follicle Outer Root Sheath Cells (HHFORSC); assay: ATP assay in Human Hair Follicle Outer Root Sheath Cells (Abcam ATP-assay kit, absorbance 570 nm); assay type: cell-based; conditions: 24 h treatment, carnitine 10 mg/ml, caffeine 10 mg/ml, arginine 30 mg/ml (alone or combined)
Procedure: Human Hair Follicle Outer Root Sheath Cells (HHFORSC), supplied by Innoprot, are isolated by ScienCell Research Labs from the outer sheath of the root of human hair. The cell line was grown in culture medium for mesenchymal stem cells (MSCM): 500 mL basal medium, 20% fetal bovine serum (FBS), 1% growth supplement for mesenchymal stem cells (MSCGS), 1% penicillin/streptomycin (P/S solution) and maintained in 25 cm^2 culture flasks at 37° C. and 5% CO2. Before proceeding with plating the cells, the flask cells is coated with poly-L-lysine (2 μg/cm^2). Every two days, the confluent cultures are divided 1:3-1:6, after washing with DPBS (Dulbecco's Phosphate-Buffered Saline), using a solution of T/E (trypsin/EDTA solution) and TNS (Trypsin Neutralization Solution) and seeded at 2-5×^4 cell/cm^2, 37° C., 5% CO2. When the cells (HHFORSC) reach about 80% confluence, they are detached with trypsin/EDTA and seeded at a density of 1×10^6 cells/ml in 12-well plates and then incubated at 37° C., 5% CO2 (24 h). When the cells reach about 80% confluence, they are treated with samples of the following compounds or mixtures of compounds, tested at the concentrations described hereafter: • Carnitine 10 mg/ml • Caffeine 10 mg/ml • Arginine 30 mg/ml • Carnitine 10 mg/ml+Caffeine 10 mg/ml • Carnitine 10 mg/ml+Arginine 30 mg/ml • Caffeine 10 mg/ml+Arginine 30 mg/ml • Carnitine 10 mg/ml+Caffeine 10 mg/ml+Arginine 30 mg/ml The cells treated with culture medium only were used as control. All the cells were incubated at 37° C., 5% CO2 for 24 h. […] The samples were then lysed by pipetting repeatedly and centrifuged to remove insoluble materials, and finally stored on ice until use. […] The samples were incubated at room temperature for 30 minutes, in the dark. The absorbance was read at a wavelength of 570 nm with a reference filter of 630 nm in a microplate reader Biotek ELX808 using a predetermined protocol and after having correctly defined a layout of the plate. The ATP concentration was calculated by interpolating the data of the standard curve after subtraction of the blank: [ATP] (nmol/μl)=Ts/Sv where Ts is the amount of ATP from the standard curve (nmol); SV is the volume of the sample (before dilution) added to the sample wells (μl).

Structure (SMILES) | Δ % (increase in the production of cellular ATP vs untreated control)
N=C(N)NCCC[C@H](N)C(=O)O [Arginine] | 32.944%
Cn1c(=O)c2c(ncn2C)n(C)c1=O [Caffeine] | 26.843%
C[N+](C)(C)CC(O)CC(=O)[O-] (stereo not drawn) [Carnitine] | 34.164%

same assay, conditions: 24 h treatment, carnitine 10 mg/ml, caffeine 10 mg/ml, arginine 30 mg/ml (alone or combined), control = culture medium only = 100

Structure (SMILES) | ATP % vs control
N=C(N)NCCC[C@H](N)C(=O)O [Arginine] | 132.94%
Cn1c(=O)c2c(ncn2C)n(C)c1=O [Caffeine] | 126.84%
C[N+](C)(C)CC(O)CC(=O)[O-] (stereo not drawn) [Carnitine] | 134.16%
